Measured values: ChEMBL document CHEMBL5096208, “Installation of Pargyline, a LSD1 Inhibitor, in the HDAC Inhibitory Template Culminated in the Identification of a Tractable Antiprostate Cancer Agent” (J Med Chem, 2021)

Legend:
[1] = Metabolic stability in Beagle dog hepatocyte assessed as parent compound remaining at 10 uM incubated for 120 mins by LC-MS/MS analysis; type: ADME, cell-based, Canis lupus familiaris; settings: hepatocytes, read-out: Stability
Homo sapiens = species on record: Homo sapiens; experiment: Selectivity ratio of IC50 for human HDAC1 to IC50 for human HDAC6
[2] = biological target: T1, Amine oxidase [flavin-containing] A (Homo sapiens, UniProt P21397); experiment: Inhibition of human full length recombinant MAO-A expressed in insect cells using kynuramine as substrate
T1 sequence (P21397 whole entry): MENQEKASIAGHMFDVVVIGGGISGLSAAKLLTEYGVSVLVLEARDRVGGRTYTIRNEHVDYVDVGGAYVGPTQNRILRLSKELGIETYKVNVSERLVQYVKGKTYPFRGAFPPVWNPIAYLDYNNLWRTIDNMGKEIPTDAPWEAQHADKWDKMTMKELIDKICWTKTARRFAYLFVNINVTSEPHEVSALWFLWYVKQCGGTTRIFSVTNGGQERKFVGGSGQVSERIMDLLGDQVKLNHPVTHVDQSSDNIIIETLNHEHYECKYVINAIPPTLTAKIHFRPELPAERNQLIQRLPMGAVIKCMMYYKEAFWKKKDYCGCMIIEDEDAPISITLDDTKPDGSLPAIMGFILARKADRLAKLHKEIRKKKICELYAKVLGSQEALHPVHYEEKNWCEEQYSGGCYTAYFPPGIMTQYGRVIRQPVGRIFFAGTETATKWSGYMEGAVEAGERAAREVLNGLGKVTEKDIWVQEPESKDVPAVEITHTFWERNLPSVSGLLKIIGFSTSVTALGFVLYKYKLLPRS

[3] = biological target: T2, Protein deacetylase HDAC6 (Homo sapiens, UniProt Q9UBN7); experiment: Inhibition of human HDAC6 (379 to 382 residues) using RHKKAc as flurogenic substrate
T2 sequence (Q9UBN7 whole entry): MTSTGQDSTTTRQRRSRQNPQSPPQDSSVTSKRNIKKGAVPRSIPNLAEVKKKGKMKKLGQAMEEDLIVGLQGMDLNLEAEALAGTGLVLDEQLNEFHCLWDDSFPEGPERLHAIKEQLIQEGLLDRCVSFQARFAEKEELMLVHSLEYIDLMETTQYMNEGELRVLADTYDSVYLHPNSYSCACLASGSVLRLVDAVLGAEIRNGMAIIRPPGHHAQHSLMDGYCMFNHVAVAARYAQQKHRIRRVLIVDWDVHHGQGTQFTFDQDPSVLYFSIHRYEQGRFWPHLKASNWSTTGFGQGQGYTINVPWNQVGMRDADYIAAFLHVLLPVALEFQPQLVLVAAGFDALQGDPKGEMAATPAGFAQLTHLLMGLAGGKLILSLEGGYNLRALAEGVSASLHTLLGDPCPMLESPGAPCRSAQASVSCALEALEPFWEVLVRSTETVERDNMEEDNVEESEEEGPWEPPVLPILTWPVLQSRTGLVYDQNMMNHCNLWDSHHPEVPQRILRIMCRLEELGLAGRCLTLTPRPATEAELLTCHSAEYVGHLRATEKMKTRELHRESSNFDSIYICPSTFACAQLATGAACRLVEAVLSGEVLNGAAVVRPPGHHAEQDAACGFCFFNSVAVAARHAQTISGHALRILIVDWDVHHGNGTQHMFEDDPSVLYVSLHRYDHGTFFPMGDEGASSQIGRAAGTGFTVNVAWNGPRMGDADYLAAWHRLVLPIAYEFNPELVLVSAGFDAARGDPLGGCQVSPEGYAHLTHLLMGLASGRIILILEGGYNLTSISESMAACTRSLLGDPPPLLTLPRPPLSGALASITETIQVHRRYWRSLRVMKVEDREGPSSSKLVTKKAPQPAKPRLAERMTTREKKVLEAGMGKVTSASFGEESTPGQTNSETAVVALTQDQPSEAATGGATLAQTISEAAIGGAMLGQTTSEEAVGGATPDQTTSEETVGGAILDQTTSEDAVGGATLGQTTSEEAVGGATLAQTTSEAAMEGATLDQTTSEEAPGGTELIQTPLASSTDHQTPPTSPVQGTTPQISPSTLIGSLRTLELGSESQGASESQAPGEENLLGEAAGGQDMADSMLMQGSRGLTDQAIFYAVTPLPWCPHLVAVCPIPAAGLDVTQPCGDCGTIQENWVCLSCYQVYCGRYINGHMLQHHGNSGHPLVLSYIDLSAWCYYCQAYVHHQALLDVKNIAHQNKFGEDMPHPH

[4] = Metabolic stability in human hepatocyte assessed as parent compound remaining at 10 uM incubated for 60 mins by LC-MS/MS analysis; type: ADME, cell-based; settings: hepatocytes, read-out: Stability
Histone deacetylase 2 = Histone deacetylase 2 (Homo sapiens, UniProt Q92769); experiment: Inhibition of human HDAC2 (379 to 382 residues) using RHKKAc as flurogenic substrate
[5] = biological target: T3, Polyamine deacetylase HDAC10 (Homo sapiens, UniProt Q969S8); experiment: Inhibition of human HDAC10 using Ac-Spermidine-AMC as flurogenic substrate
T3 sequence (Q969S8 whole entry): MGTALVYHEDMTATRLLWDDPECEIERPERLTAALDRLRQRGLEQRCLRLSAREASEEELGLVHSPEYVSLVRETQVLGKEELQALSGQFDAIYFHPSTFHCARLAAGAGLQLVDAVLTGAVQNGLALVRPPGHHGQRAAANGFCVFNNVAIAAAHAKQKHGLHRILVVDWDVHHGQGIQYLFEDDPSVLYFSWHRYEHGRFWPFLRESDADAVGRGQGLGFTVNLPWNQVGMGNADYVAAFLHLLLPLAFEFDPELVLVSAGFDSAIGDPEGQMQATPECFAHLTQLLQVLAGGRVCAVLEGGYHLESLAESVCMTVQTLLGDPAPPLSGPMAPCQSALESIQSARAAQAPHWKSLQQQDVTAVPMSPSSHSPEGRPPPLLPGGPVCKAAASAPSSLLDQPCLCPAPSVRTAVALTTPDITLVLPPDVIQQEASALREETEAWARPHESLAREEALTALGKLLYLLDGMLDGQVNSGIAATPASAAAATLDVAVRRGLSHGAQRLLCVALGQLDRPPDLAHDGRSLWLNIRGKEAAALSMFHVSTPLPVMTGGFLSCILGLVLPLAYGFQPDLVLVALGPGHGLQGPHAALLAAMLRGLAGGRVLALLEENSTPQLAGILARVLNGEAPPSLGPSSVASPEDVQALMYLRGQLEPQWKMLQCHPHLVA

Histone deacetylase 2, sequence (Q92769 whole entry, the tested form may be a part): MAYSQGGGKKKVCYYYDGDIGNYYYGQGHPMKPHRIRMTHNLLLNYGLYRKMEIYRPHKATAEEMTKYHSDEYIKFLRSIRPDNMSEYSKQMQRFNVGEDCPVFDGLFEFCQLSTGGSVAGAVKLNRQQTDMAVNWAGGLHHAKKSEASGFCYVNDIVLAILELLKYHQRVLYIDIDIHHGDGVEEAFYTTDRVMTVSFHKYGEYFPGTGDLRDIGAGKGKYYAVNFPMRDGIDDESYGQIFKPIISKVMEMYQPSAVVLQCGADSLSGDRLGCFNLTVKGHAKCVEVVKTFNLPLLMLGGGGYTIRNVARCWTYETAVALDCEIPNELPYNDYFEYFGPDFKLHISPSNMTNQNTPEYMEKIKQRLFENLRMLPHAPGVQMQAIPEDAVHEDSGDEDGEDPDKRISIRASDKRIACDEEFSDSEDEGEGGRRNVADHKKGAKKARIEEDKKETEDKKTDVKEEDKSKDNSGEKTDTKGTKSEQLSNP

C#CCN(C)Cc1cccc(NC(=O)CCCCCCC(=O)NO)c1
remaining at 2 h, 10 µM [1]: 66.7%
Ratio IC50 (Homo sapiens): 33.6
IC50 [2]: 790 nM
IC50 [3]: 20 nM
remaining at 1 h, 10 µM [4]: 102%
IC50 (Histone deacetylase 2): 1540 nM
IC50 [5]: 374 nM
